Results from publication PMC11532494 (Nature Communications, 2024).
Values joined by “and” are separate entries in the source; they are usually repeats but may differ in a detail not shown here. Equal values may be shown once. Read-outs that look alike come from different tables or passages of the source. No end group written: not given here. *: point of attachment. AMC = Cc1cc(=O)oc2cc(N*)ccc12

Assays:
VsHdaH (1b) [1] = assay type: biochemical, Vibrio sp.
RsPrpH (1b) [2] = experiment: Substrate screening assay (acyl-peptide-AMC); assay type: biochemical, Rhizorhabdus sp.
BsAcuC (2c) [3] = molecular target: T1, BsAcuC (2c) (Bacillus subtilis, UniProt P39067); experiment: Substrate screening assay (acyl-peptide-AMC); assay type: biochemical
T1 construct: made in house; host or cells: E. coli BL21 (DE3)
T1 sequence (P39067 1-387): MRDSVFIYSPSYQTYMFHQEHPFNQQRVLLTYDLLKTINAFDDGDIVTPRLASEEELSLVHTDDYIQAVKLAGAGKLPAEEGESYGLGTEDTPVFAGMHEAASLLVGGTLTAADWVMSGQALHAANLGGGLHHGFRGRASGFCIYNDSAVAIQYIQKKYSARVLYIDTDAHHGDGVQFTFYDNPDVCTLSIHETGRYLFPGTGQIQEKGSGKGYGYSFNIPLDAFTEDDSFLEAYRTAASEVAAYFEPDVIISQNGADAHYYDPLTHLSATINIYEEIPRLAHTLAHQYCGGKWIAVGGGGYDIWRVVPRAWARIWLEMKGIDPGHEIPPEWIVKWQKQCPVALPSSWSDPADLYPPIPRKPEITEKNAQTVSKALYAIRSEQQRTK
Protocol: (§1) Experiments with SIRT2 and SIRT5 were supplemented with NAD^+ (500 µM). Thereafter, a solution of trypsin (25 µL, 5.0 mg/mL; final concentration of 2.5 mg/mL) was added, and the development of the assay was allowed to proceed for 90 min at room temperature before fluorescence analysis. […] To this end, a single category is given to all conversions >48% on the heatmap. […] For the H4-derived peptide LGKbio no positive control was available.

KpHdaH (1b) [4] = molecular target: T2, KpHdaH (1b) (Klebsiella pneumoniae, UniProt A0A377Z5F6); assay type: biochemical
Controls [5] = assay type: biochemical
LcApaH (3) [6] = molecular target: T3, LcApaH (3) (Legionella cherrii, UniProt A0A0W0SGS1); assay type: biochemical
PsApaH (4) [7] = molecular target: T4, PsApaH (4) (Pseudomonas sp. M30-35, UniProt A0A1Y0KY79); assay type: biochemical
Protocol: as §1

RwDmhA (1b) [8] = molecular target: T5, RwDmhA (1b) (Rhizorhabdus wittichii, UniProt A0A067XIQ6); assay type: biochemical
VcHdaH (5b) [9] = assay type: biochemical, Vibrio cholerae
Controls [10] = assay type: biochemical; remark: listed apart in the source
LpApaH (3) [11] = molecular target: T6, LpApaH (3) (Legionella pneumophila, UniProt A0A2S6EWV0); assay type: biochemical
VcHdaH (5b) [12] = experiment: Acetyl-polyamine deacetylase assay; assay type: biochemical, Vibrio cholerae; conditions: VcHdaH (5b) 6µM; single samples (replicates)
PA1409 = PA1409 (Pseudomonas aeruginosa, UniProt Q9I3T5); experiment: Acetyl-polyamine deacetylase assay (positive control); assay type: biochemical; conditions: sheet Figure 2d
Chain of PA1409 (Q9I3T5 whole entry): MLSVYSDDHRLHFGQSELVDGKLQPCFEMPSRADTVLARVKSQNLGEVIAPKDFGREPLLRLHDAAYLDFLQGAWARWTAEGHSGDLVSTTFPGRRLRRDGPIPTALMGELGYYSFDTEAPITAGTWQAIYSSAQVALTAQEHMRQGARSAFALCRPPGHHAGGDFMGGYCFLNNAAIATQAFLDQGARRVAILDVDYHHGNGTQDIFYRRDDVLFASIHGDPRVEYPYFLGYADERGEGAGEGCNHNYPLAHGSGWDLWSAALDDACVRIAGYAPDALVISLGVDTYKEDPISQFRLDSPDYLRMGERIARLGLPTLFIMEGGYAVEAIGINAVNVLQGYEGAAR

VsHdaH (1b) [13] = assay type: biochemical, Vibrio sp.; conditions: VsHdaH (1b) 3µM; single samples (replicates)
KpHdaH (1b) [14] = molecular target: T2, KpHdaH (1b); assay type: biochemical; conditions: KpKDAC (1b); single samples (replicates)
Target sequence in this assay (A0A377Z5F6 1-371): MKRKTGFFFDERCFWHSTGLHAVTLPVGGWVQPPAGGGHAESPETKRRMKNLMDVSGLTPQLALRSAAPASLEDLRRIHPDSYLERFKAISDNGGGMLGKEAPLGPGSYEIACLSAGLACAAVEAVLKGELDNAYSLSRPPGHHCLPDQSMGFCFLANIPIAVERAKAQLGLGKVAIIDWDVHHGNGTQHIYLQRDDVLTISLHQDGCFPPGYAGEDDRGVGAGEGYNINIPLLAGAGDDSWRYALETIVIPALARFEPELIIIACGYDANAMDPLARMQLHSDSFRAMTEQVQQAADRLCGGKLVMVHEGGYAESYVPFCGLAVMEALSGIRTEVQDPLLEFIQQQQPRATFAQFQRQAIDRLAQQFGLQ

RwDmhA (1b) [15] = molecular target: T5, RwDmhA (1b); assay type: biochemical; conditions: RwDmhA (1b) 3µM; single samples (replicates)
Target sequence in this assay (A0A067XIQ6 1-369): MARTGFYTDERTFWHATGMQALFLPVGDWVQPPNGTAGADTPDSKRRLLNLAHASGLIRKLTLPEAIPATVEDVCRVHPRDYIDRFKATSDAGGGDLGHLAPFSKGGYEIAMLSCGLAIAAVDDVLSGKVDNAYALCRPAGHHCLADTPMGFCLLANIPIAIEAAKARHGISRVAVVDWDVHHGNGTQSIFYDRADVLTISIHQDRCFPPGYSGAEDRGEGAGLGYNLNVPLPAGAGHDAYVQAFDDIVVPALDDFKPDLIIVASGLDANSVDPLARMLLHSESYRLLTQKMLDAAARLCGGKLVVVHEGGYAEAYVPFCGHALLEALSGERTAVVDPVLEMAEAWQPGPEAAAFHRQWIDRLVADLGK

LpApaH (3) [16] = molecular target: T6, LpApaH (3); assay type: biochemical; remark: listed apart in the source
Target sequence in this assay (A0A2S6EWV0 1-426): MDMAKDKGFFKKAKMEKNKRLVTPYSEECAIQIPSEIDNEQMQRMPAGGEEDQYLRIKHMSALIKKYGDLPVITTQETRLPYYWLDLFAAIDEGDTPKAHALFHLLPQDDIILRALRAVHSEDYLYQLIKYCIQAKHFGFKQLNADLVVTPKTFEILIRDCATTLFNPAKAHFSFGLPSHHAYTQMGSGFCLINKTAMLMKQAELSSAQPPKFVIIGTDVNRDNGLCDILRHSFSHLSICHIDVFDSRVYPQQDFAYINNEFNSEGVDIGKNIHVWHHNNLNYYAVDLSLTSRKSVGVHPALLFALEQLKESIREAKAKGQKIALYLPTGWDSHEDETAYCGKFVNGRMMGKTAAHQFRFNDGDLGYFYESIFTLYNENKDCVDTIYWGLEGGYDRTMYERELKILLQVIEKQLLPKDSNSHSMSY

BsAcuC (2c) [17] = molecular target: T1, BsAcuC (2c); experiment: Acetyl-polyamine deacetylase assay; assay type: biochemical; conditions: BsAcuC (2c) 3µM; single samples (replicates)
RsPrpH (1b) [18] = experiment: Acetyl-polyamine deacetylase assay; assay type: biochemical, Rhizorhabdus sp.; conditions: RsPrpH 3µM; single samples (replicates)
LcApaH (3) [19] = molecular target: T3, LcApaH (3); assay type: biochemical; remark: listed apart in the source
Target sequence in this assay (A0A0W0SGS1 1-425): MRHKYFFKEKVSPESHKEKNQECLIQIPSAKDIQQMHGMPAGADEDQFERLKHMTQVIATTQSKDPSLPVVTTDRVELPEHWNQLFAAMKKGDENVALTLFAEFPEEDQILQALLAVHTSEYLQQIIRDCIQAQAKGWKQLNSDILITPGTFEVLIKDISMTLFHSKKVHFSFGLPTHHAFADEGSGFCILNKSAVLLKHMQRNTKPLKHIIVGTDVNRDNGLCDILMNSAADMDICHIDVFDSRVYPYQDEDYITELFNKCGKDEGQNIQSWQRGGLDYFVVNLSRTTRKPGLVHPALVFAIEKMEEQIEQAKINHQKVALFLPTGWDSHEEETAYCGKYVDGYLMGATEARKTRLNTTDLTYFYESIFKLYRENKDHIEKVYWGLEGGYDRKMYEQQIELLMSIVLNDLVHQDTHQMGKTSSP

PsApaH (4) [20] = molecular target: T4, PsApaH (4); experiment: Acetyl-polyamine deacetylase assay; assay type: biochemical; conditions: single samples (replicates)
Target sequence in this assay (A0A1Y0KY79 1-342 limits assumed): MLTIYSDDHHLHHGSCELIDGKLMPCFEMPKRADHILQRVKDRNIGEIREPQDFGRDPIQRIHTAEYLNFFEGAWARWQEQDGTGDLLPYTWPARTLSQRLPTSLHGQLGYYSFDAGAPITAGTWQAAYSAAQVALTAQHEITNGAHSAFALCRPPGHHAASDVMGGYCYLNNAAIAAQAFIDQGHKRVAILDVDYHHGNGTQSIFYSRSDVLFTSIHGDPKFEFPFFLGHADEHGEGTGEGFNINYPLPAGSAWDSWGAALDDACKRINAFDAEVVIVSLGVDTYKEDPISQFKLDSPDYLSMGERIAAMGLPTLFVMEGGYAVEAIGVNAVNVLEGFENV

[21] = substrate screening, mean of two measurements
[22] = substrate screening, measurement 1 of two
[23] = substrate screening, measurement 2 of two
[24] = two measurements, single values

QPKKdec (QPKK-{AMC}; not fully specified (residue 4); printed as QPKKdec; also: decanoyl-lysine (which Lys not given here); UniProt P04637 317-320, looked up, fragment)
RFU means, VsHdaH (1b) (VsHdaH (1b) [1]; means of two measurements): 82 RFU | RFU*2 means, VsHdaH (1b) (VsHdaH (1b) [1]; means of two measurements): 164 RFU*2 | [AMC] (nM), VsHdaH (1b), means (VsHdaH (1b) [1]; [21]): 80.08 nM | [AMC] (nM), VsHdaH (1b) (VsHdaH (1b) [1]; [22]): 61.52 nM | [AMC] (nM), VsHdaH (1b) (VsHdaH (1b) [1]; [23]): 98.63 nM | RFU*2, VsHdaH (1b) (VsHdaH (1b) [1]; [24]): 126 RFU*2 and 202 RFU*2 | RFU, VsHdaH (1b) (VsHdaH (1b) [1]; [24]): 63 RFU and 101 RFU | RFU means, RsPrpH (1b) (RsPrpH (1b) [2]; means of two measurements): 37.5 RFU | RFU*2 means, RsPrpH (1b) (RsPrpH (1b) [2]; means of two measurements): 75 RFU*2 | [AMC] (nM), RsPrpH (1b), means (RsPrpH (1b) [2]; [21]): 36.62 nM | [AMC] (nM), RsPrpH (1b) (RsPrpH (1b) [2]; [22]): 31.25 nM | [AMC] (nM), RsPrpH (1b) (RsPrpH (1b) [2]; [23]): 41.99 nM | RFU*2, RsPrpH (1b) (RsPrpH (1b) [2]; [24]): 64 RFU*2 and 86 RFU*2 | RFU, RsPrpH (1b) (RsPrpH (1b) [2]; [24]): 32 RFU and 43 RFU | RFU means, BsAcuC (2c) (BsAcuC (2c) [3]; means of two measurements): 1377 RFU | RFU*2 means, BsAcuC (2c) (BsAcuC (2c) [3]; means of two measurements): 2754 RFU*2 | [AMC] (nM), BsAcuC (2c), means (BsAcuC (2c) [3]; [21]): 1344.73 nM | RFU*2, BsAcuC (2c) (BsAcuC (2c) [3]; [24]): 3196 RFU*2 and 2312 RFU*2 | RFU means, KpHdaH (1b) (KpHdaH (1b) [4]; means of two measurements): 58 RFU | RFU*2 means, KpHdaH (1b) (KpHdaH (1b) [4]; means of two measurements): 116 RFU*2 | [AMC] (nM), KpHdaH (1b), means (KpHdaH (1b) [4]; [21]): 56.64 nM | [AMC] (nM), KpHdaH (1b) (KpHdaH (1b) [4]; [22]): 48.83 nM | [AMC] (nM), KpHdaH (1b) (KpHdaH (1b) [4]; [23]): 64.45 nM | RFU*2, KpHdaH (1b) (KpHdaH (1b) [4]; [24]): 100 RFU*2 and 132 RFU*2 | RFU, KpHdaH (1b) (KpHdaH (1b) [4]; [24]): 50 RFU and 66 RFU | [AMC] (nM), controls, means (Controls [5]): 15830.57 nM | RFU means, LcApaH (3) (LcApaH (3) [6]): 167 RFU | RFU*2, LcApaH (3) (LcApaH (3) [6]): 294 RFU*2 and 374 RFU*2 | RFU*2 means, LcApaH (3) (LcApaH (3) [6]): 334 RFU*2 | RFU, LcApaH (3) (LcApaH (3) [6]): 147 RFU and 187 RFU | [AMC] (nM), LcApaH (3) (LcApaH (3) [6]): 143.55 nM and 182.62 nM | [AMC] (nM), LcApaH (3), means (LcApaH (3) [6]): 163.09 nM | RFU means, PsApaH (4) (PsApaH (4) [7]; means of two measurements): 97 RFU | RFU*2 means, PsApaH (4) (PsApaH (4) [7]; means of two measurements): 194 RFU*2 | [AMC] (nM), PsApaH (4), means (PsApaH (4) [7]; [21]): 94.73 nM | [AMC] (nM), PsApaH (4) (PsApaH (4) [7]; [22]): 91.80 nM | [AMC] (nM), PsApaH (4) (PsApaH (4) [7]; [23]): 97.66 nM | RFU*2, PsApaH (4) (PsApaH (4) [7]; [24]): 200 RFU*2 and 188 RFU*2 | RFU, PsApaH (4) (PsApaH (4) [7]; [24]): 100 RFU and 94 RFU | RFU means, RwDmhA (1b) (RwDmhA (1b) [8]; means of two measurements): 33 RFU | RFU*2 means, RwDmhA (1b) (RwDmhA (1b) [8]; means of two measurements): 66 RFU*2 | [AMC] (nM), RwDmhA (1b), means (RwDmhA (1b) [8]; [21]): 32.23 nM | [AMC] (nM), RwDmhA (1b) (RwDmhA (1b) [8]; [22]): 18.55 nM | [AMC] (nM), RwDmhA (1b) (RwDmhA (1b) [8]; [23]): 45.90 nM | RFU means, VcHdaH (5b) (VcHdaH (5b) [9]; means of two measurements): 53.5 RFU | RFU*2 means, VcHdaH (5b) (VcHdaH (5b) [9]; means of two measurements): 107 RFU*2 | [AMC] (nM), VcHdaH (5b), means (VcHdaH (5b) [9]; [21]): 52.25 nM | RFU means, controls (Controls [10]): 16210.5 RFU | RFU*2, controls (Controls [10]): 29980 RFU*2 and 34862 RFU*2 | RFU*2 means, controls (Controls [10]): 32421 RFU*2 | RFU, controls (Controls [10]): 14990 RFU and 17431 RFU | RFU means, LpApaH (3) (LpApaH (3) [11]): 175 RFU | RFU*2, LpApaH (3) (LpApaH (3) [11]): 316 RFU*2 and 384 RFU*2 | RFU*2 means, LpApaH (3) (LpApaH (3) [11]): 350 RFU*2 | RFU, LpApaH (3) (LpApaH (3) [11]): 158 RFU and 192 RFU | [AMC] (nM), LpApaH (3) (LpApaH (3) [11]): 154.30 nM and 187.50 nM | [AMC] (nM), LpApaH (3), means (LpApaH (3) [11]): 170.90 nM

CC(=O)NCCCCNCCCN [N8-acetyl-spermidine]
acetate released, g/l (VcHdaH (5b) [12]): 0.002219 g/L and 0.004047 g/L and 0.004569 g/L | acetate released, mM (VcHdaH (5b) [12]): 0.03696 mM and 0.06739 mM and 0.07609 mM | mM normalized to enzyme concentration (VcHdaH (5b) [12]): 0.006159 mM and 0.01123 mM and 0.01268 mM | A1-A2 (PA1409; absorbance difference between the two time points): 0.581 and 0.564 | (A1-A2)-B (PA1409; absorbance difference minus mean blank): 0.5395 and 0.5225 | acetate released, g/l (VsHdaH (1b) [13]): 0.002742 g/L and 0.003003 g/L | acetate released, mM (VsHdaH (1b) [13]): 0.04565 mM and 0.05 mM | mM normalized to enzyme concentration (VsHdaH (1b) [13]): 0.01522 mM and 0.01667 mM and 0.02536 mM | acetate released, g/l (KpHdaH (1b) [14]): -0.006957 g/L and 0.01217 g/L and 0.008116 g/L | acetate released, mM (KpHdaH (1b) [14]): -0.1158 mM and 0.2027 mM and 0.1352 mM | mM normalized to enzyme concentration (KpHdaH (1b) [14]): -0.02317 mM and 0.04055 mM and 0.02703 mM | acetate released, g/l (RwDmhA (1b) [15]): 0.005875 g/L and 0.0006527 g/L | acetate released, mM (RwDmhA (1b) [15]): 0.09783 mM and 0.01087 mM | mM normalized to enzyme concentration (RwDmhA (1b) [15]): 0.02246 mM and 0.03261 mM and 0.003623 mM | acetate released, g/l (LpApaH (3) [16]): 0.00515 g/L and 0.00674 g/L | acetate released, mM (LpApaH (3) [16]): 0.09 mM and 0.11 mM | mM normalized to enzyme concentration (LpApaH (3) [16]): 0.0429 mM and 0.0561 mM | acetate released, g/l (BsAcuC (2c) [17]): 0.006919 g/L and 0.003003 g/L and 0.003525 g/L | acetate released, mM (BsAcuC (2c) [17]): 0.1152 mM and 0.05 mM and 0.0587 mM | mM normalized to enzyme concentration (BsAcuC (2c) [17]): 0.03841 mM and 0.01667 mM and 0.01957 mM | acetate released, g/l (RsPrpH (1b) [18]): 0.01005 g/L and 0.01371 g/L and 0.01762 g/L | acetate released, mM (RsPrpH (1b) [18]): 0.1674 mM and 0.2283 mM and 0.2935 mM | mM normalized to enzyme concentration (RsPrpH (1b) [18]): 0.0558 mM and 0.07609 mM and 0.09783 mM | acetate released, g/l (LcApaH (3) [19]): 0.008058 g/L and 0.009115 g/L | acetate released, mM (LcApaH (3) [19]): 0.1342 mM and 0.1518 mM | mM normalized to enzyme concentration (LcApaH (3) [19]): 0.1342 mM and 0.1518 mM | acetate released, g/l (PsApaH (4) [20]): 0.04138 g/L and 0.04164 g/L and 0.04191 g/L | acetate released, mM (PsApaH (4) [20]): 0.6891 mM and 0.6935 mM and 0.6978 mM
